Test [1] relates to Aspergillus niger. The test can be described thus: Antifungal activity against Aspergillus niger by CLSI protocol based method. In kind it is functional.
Test [2] has as its system Aspergillus niger. The test can be described thus: Antifungal activity against Aspergillus niger. Type of test: functional.
The test system of test [3] is Candida albicans. The test can be described thus: microbe, parasite or virus in culture.
For test [4], the system named is Staphylococcus aureus. The test can be described thus: Antimicrobial activity against Staphylococcus aureus assessed as reduction in bacterial growth at 100 ppm relative to control. In kind it is functional.
Test [5] concerns Candida albicans. The test can be described thus: Antimicrobial activity against Candida albicans assessed as reduction in […] growth at 100 ppm relative to control. Type of test: functional.
The subject of test [6] is Trichophyton mentagrophytes. The test can be described thus: Antimicrobial activity against Trichophyton mentagrophytes assessed as reduction in microbial growth at 100 ppm relative to control. In kind it is functional.
The test system of test [7] is Aspergillus terreus. The test can be described thus: Antimicrobial activity against Aspergillus terreus assessed as reduction in microbial growth at 100 ppm relative to control. In kind it is functional.
Another test concerns Aureobasidium pullulans. The test can be described thus: Antimicrobial activity against Pullularia pullulans assessed as reduction in microbial growth at 100 ppm relative to control. In kind it is functional.
Test [8] relates to MCF7. The test can be described thus: Cytotoxicity against human MCF7 cells incubated for 72 hrs by WST1 dye based assay. The following applies: MCF7, 72 h. Type of test: functional, cell-based.
A further test concerns C32. The test can be described thus: Cytotoxicity against human C32 cells incubated for 72 hrs by WST1 dye based assay. In kind it is functional, cell-based. The following applies: C32, 72 h. (In general: Formazan colour is commonly taken as a measure of viable cells.)
For another test, the system named is HFF-1. The test can be described thus: Cytotoxicity against human HFF1 cells incubated for 72 hrs by WST1 dye based assay. Type of test: cell-based. The following applies: HFF-1, 72 h.
The next test addresses Lipoxygenase (Glycine max, UniProt Q39829). The test can be described thus: Inhibition of soybean lipoxygenase.
Test [9] in a line: Antioxidant activity assessed as DPPH radical scavenging activity. Type of test: functional. The following applies: dose or concentration not given here. On the technique in general: DPPH is a stable violet radical that fades when it is reduced.
The species named for test [10] is Mus musculus. The test can be described thus: Antioxidant activity in Swiss albino mouse assessed as GSH level per mg tissue. In kind it is functional.
Test [11] is filed under the species Mus musculus. The test can be described thus: Antioxidant activity in Swiss albino mouse assessed as LPO level per mg tissue. Type of test: functional.
The subject of another test is Ancylostoma caninum. The test can be described thus: Anthelmintic activity against dog hookworm larvae infected in mouse assessed as protection against infection rate at 0.06%. Type of test: functional.
The test system of a further test is Hs-578T. The test can be described thus: Cytotoxicity against human Hs578T cells assessed as cell growth inhibition after 48 hrs by SRB assay. In kind it is functional, cell-based.
In the next test the test system is SNB-75. The test can be described thus: Cytotoxicity against human SNB75 cells assessed as cell growth inhibition after 48 hrs by SRB assay. As to conditions: SNB-75, 48 h. In kind it is functional, cell-based.
For the next test, the system named is 786-0. The test can be described thus: Cytotoxicity against human 786-O cells assessed as cell growth inhibition after 48 hrs by SRB assay. Type of test: functional, cell-based. As to conditions: 786-0, 48 h. Background: In SRB staining, fixed cells bind dye roughly in proportion to their protein.
For another test, the system named is HOP-92. The test can be described thus: Cytotoxicity against human HOP92 cells assessed as cell growth inhibition after 48 hrs by SRB assay. In kind it is functional, cell-based. As to conditions: HOP-92, 48 h.
Test [12] relates to MCF7. The test can be described thus: Cytotoxicity against human MCF7 cells assessed as cell growth inhibition after 48 hrs by SRB assay. In kind it is functional, cell-based. The following applies: MCF7, 48 h.
Test [13] is described as follows: Inhibition of LTB4 formation in rat polymorphonuclear leukocytes preincubated for 2 mins followed by A-23187 addition after 4 mins. Type of test: functional, cell-based.
For a further test, the system named is Trachea. The test can be described thus: Inhibition of egg albumin antigen challenge-induced contraction response in methacholine-primed guinea pig trachea at 3 ug/ml. Type of test: functional. The following applies: Cavia porcellus.
Test [14] relates to Mycobacterium tuberculosis. The test can be described thus: Antitubercular activity against Mycobacterium tuberculosis H37Rv. Type of test: functional.
Test [15] relates to Rattus norvegicus. The test can be described thus: Anti-asthmatic activity in rat assessed as inhibition of egg albumin-induced duration of symptoms of dyspnoea at 3 mg/kg, po administered 90 mins prior to dyspnoea induction. In kind it is functional.
Test [16] concerns Rattus norvegicus. The test can be described thus: Anti-asthmatic activity in rat assessed as inhibition of egg albumin-induced duration of symptoms of dyspnoea at 5 mg/kg, po administered 90 mins prior to dyspnoea induction. Type of test: functional.
The test system of the next test is Escherichia coli. The test can be described thus: Antibacterial activity against Escherichia coli. As to conditions: Escherichia coli. Type of test: functional.
Test [17] relates to Staphylococcus aureus. The test can be described thus: Antibacterial activity against methicillin-resistant Staphylococcus aureus. Type of test: functional.
Another test deals with Bacillus cereus. The test can be described thus: Antibacterial activity against Bacillus cereus. Type of test: functional, organism-based.
The next test concerns Salmonella typhimurium. The test can be described thus: Antibacterial activity against Salmonella typhimurium. The following applies: Salmonella enterica. Type of test: functional, Salmonella enterica subsp. enterica serovar Typhimurium.
Test [18] relates to Human immunodeficiency virus. The test can be described thus: Antiviral activity against HIV infected in human MT4 cells. The following applies: Human immunodeficiency virus 1, MT4. In kind it is functional, organism-based.
Test [19] deals with MCF7. The test can be described thus: Growth inhibition of human MCF7 cells at 10 uM. Type of test: functional. The following applies: read-out: GI.
A further test concerns UO-31. The test can be described thus: Growth inhibition of human UO31 cells at 10 uM. Type of test: functional. The following applies: read-out: GI.
The test system of test [20] is Staphylococcus aureus. The test can be described thus: Antimicrobial activity against Staphylococcus aureus assessed as reduction in bacterial growth at 500 to 1000 ppm relative to control. Type of test: functional.
In test [21] the test system is Candida albicans. The test can be described thus: Antimicrobial activity against Candida albicans assessed as reduction in […] growth at 500 to 1000 ppm relative to control. Type of test: functional.
Test [22] has as its system Trichophyton mentagrophytes. The test can be described thus: Antimicrobial activity against Trichophyton mentagrophytes assessed as reduction in microbial growth at 1 to 10 ppm relative to control. Type of test: functional.
For test [23], the system named is Aspergillus terreus. The test can be described thus: Antimicrobial activity against Aspergillus terreus assessed as reduction in microbial growth at 1 to 10 ppm relative to control. Type of test: functional.
The next test relates to Bacillus subtilis. The test can be described thus: Antimicrobial activity against Bacillus subtilis assessed as reduction in microbial growth at 1 to 10 ppm relative to control. In kind it is functional.

SMILES strings stand for the structures. Converted amounts (≈) assume the structure as drawn.

In general, inhibition refers to the percentage by which the read-out fell short of the control. In general, IC50 refers to the concentration needed to halve the response being measured. Usually inhibition in vivo stands for the drop in the measured response relative to a control, in per cent.

Consider `CC(=O)N1CCN(c2ccc(OCC3COC(Cn4ccnc4)(c4ccc(Cl)cc4Cl)O3)cc2)CC1` (centres undefined) [KETOCONAZOLE], for which the MIC in the test with Aspergillus niger [1] was 136 µg/mL (≈ 255 µM); in the test with Aspergillus niger [2] it was 136 µg/mL (≈ 255 µM); with Candida albicans [3], 62.2 µg/mL (≈ 117 µM).
Regarding `Clc1nc2c(nc1Cl)N(CCC1CCCN1)c1ccccc1S2` (centres undefined), the inhibition at 100 ppm (in the test with Staphylococcus aureus [4]; in the test with Candida albicans [5]; in [6]; with Aspergillus terreus [7]; in the test on Aureobasidium pullulans) was 100% each time.
`c1cnc2c(c1)Nc1ncccc1S2`: the 50% inhibitory concentration (IC50) in the test on MCF7 [8] is 4.8 µg/mL (≈ 23.9 µM); in the test with C32, 7.5 µg/mL (≈ 37.3 µM); in the test with HFF-1, ≥ 50 µg/mL.
On Lipoxygenase, `CCCc1nc(N2CCN(C)CC2)nc2c1Nc1ccccc1S2` had an IC50 of 8900 nM.
As to `COc1cccc2c1Nc1c(c3nc4ccccc4c(=O)n3c3c(OC)cccc13)S2`, the inhibition in test [9] was 45.6 to 47.3%. Also, the Activity in the test filed under Mus musculus [10] was 6.8 nM; in the test filed under Mus musculus [11] it was 4.5 to 4.6 nM.
As for `Clc1nc2c(nc1Cl)Sc1ccccc1N2`, the Activity in the test on Ancylostoma caninum worked out at 90%.
Take `COc1cccc2c3c(c4nc5ccccc5c(=O)n4c12)Sc1cc(C)ccc1N3`: the inhibition in [9] lay in the range of 45.6 to 47.3%. For the same compound, the results for the Activity in the test filed under Mus musculus [10] and in the test filed under Mus musculus [11] were 6.8 nM and 4.5 to 4.6 nM, respectively.
Turning to `Clc1nc2c(nc1Cl)N(CCCN1CCCC1)c1ccccc1S2`, the inhibition at 100 ppm (with Staphylococcus aureus [4]; in the test with Candida albicans [5]; in test [6]; in the test on Aspergillus terreus [7]; in the test on Aureobasidium pullulans) was 100% throughout.
In the case of `Cc1ccc(S(=O)(=O)NCCN2c3nc4ccccc4cc3Sc3cc4ccccc4nc32)cc1`, the IC50 came out at 1700 nM in the test with Hs-578T, 1700 nM in the test with SNB-75 and 480 nM in the test with 786-0.
For the compound `CCN(CC)CCN1c2nc3ccccc3cc2Sc2cc3ccccc3nc21`, the IC50 with HOP-92 and in the test with MCF7 [12] was ≤ 1000 nM in each case.
The compound `COc1ccc2c(c1)Sc1nccnc1N2C` yielded an IC50 in test [13] of 1 to 5 µg/mL (≈ 4.08 to 20.4 µM). In addition, in the test with Trachea, 3 µg/mL produced 71% inhibition.
For the compound `O=c1[nH]c2ccc(Cl)cc2c2c1Sc1cc(Cl)ccc1N2`, the MIC in test [14] is > 6.25 µg/mL.
`CN1c2ccc(O)c(Cl)c2Sc2nccnc21` showed an IC50 in test [13] of 0.05 to 1 µg/mL (≈ 0.188 to 3.76 µM). In addition, the inhibition in vivo at 3 mg/kg with Rattus norvegicus [15] was 43%. For the same compound, the inhibition in vivo at 5 mg/kg with Rattus norvegicus [16] amounted to 47%.
With `Cc1ccc2c(c1)Sc1c(F)cc3c(=O)c(C(=O)O)cn(C4CC4)c3c1N2`, the MIC against Escherichia coli, with Staphylococcus aureus [17], with Bacillus cereus and against Salmonella typhimurium was 1.5 µg/mL (≈ 3.92 µM) each time.
In test [18], `CCOCn1c(=O)[nH]c2c(c1=O)Nc1ccc(C)cc1S2` yielded an IC50 of 4580 nM.
Consider `Clc1ccc(N2c3nc4ccccc4cc3Sc3cc4ccccc4nc32)cc1`, for which the results for the inhibition of growth at 10 µM in the test with MCF7 [19] and with UO-31 were 63% and 57 to 73%, respectively.
Take `CN(C)CCCN1c2nc3ccccc3cc2Sc2cc3ccccc3nc21`: the IC50 with HOP-92 and with MCF7 [12] was ≤ 1000 nM in each case.
In the case of `[O-][S+]1c2ccccc2Nc2nc(Cl)c(Cl)nc21` (centres undefined), the “inhibition (INH)” value (in the test on Staphylococcus aureus [20]; with Candida albicans [21]; in test [22]; in the test on Aspergillus terreus [23]; in the test with Bacillus subtilis) was 100% in each case.

For the origin of these results see ChEMBL document CHEMBL4138122, “Azaphenothiazines - promising phenothiazine derivatives. An insight into nomenclature, synthesis, structure elucidation and biological properties” (Eur J Med Chem, 2017).
